Experiments:
[1] = test system: BCMA on the surface of multiple myeloma cells; assay: BCMA surface expression on multiple myeloma cells in patients given oral LY3039478; format: in vivo, human; conditions: mean, three 25 mg oral doses
Experimental: Three human subjects having multiple myeloma were administered three 25 mg doses of the gamma secretase inhibitor (GSI) LY3039478 by mouth. The absolute B cell maturation antigen (BCMA) antibody binding capacity (ABC) on the surface of multiple myeloma cells was quantitated by flow cytometry performed on bone marrow aspirate specimens obtained from each of the patients prior to administration of the GSI, and immediately after the third oral GSI dose. A mean 66-fold increase in BCMA ABC was observed following GSI administration (FIG. 15A).

[2] = test system: anti-BCMA CAR+ T cells; assay: Anti-BCMA CAR+ T cells incubated with BCMA-containing beads +/- LY3039478 (Luminex); format: cell-based, human; conditions: different concentrations
Experimental: Various parameters indicative of T cell function were assessed following incubation of anti-BCMA CAR+ T cells with BCMA-containing beads in the presence of different concentrations of the gamma secretase inhibitor, LY3039478, or vehicle (DMSO). Supernatant was harvested after 24 hours and production of TNF-alpha, IFN-gamma and IL-2 were measured using a Luminex Multiplex Assay.

[3] = test system: MM1S cells; assay: Serial restimulation of anti-BCMA CAR+ T cells with irradiated target cells: expansion and cytokines; format: cell-based, human; conditions: 0.001 μM and 1.0 μM
Source text: The ability of CAR T cells to expand ex vivo following repeated rounds of antigen stimulation can correlate with in vivo function and/or capacity of the cells to persist in in vivo (e.g., following administration and initial activation in response to encounter with antigen) (Zhao et al. (2015) Cancer Cell, 28:415-28). To assess the effect of the exemplary gamma secretase inhibitor on CAR-T cell activity after serial restimulation, anti-BCMA CAR+ T cells were generated as described above in Example 2, and irradiated BCMA-expressing target cells (MM1S cells) were added at an effector-to-target (E:T) ratio of 1:2 in the presence of LY3039478 at two different concentrations, either 0.001 μM (a concentration around the IC50) or a higher concentration of 1.0 μM (approximately 3 times Cmax), or with vehicle only control. The assay was performed on a composition of anti-BCMA CAR+ T cells generated from T cells derived from a healthy donor or from a donor with multiple myeloma. Every 3-4 days, CAR-expressing T cells were harvested, counted and re-plated at the initial seeding density with fresh media containing new irradiated target cells at the same E:T ratio in the presence or absence of the same concentration of LY3039478. A total of 3-5 rounds of stimulation were carried out during a 10-14 day culture period. Effects of the inhibitor on T cell function were assessed by monitoring the cell number (FIGS. 4A and 4B) or cytokine production in harvested supernatant (FIG. 5A and FIG. 5B) at each round of stimulation.
The production of cytokines by anti-BCMA CAR-T cells upon restimulation with antigen-expressing cells in the presence or absence of LY3039478 was assessed after the first round of re-plating at day 4. Culture supernatants were harvested 24 hours after re-plating, and IFN-gamma, IL-2 and TNF-alpha were measured from the culture supernatants.

[4] = test system: RPMI-8226, OPM2, or MM1.S; assay: Re-challenge of chronically stimulated anti-BCMA CAR+ T cells with target cells +/- LY3039478; format: cell-based, human
Experimental: The effect of a gamma secretase inhibitor compound, LY3039478, on the cytotoxicity of anti-BCMA CAR+ T cells after long-term CAR-specific stimulation was assessed. Anti-BCMA CAR+ T cell compositions, generated as described in Example 2 containing anti-BCMA CAR-expressing CD4+ and CD8+ T cells, were incubated with 50 μg/mL BCMA-Fc conjugated beads for 7 days, under conditions designed to functionally exhaust the CAR T cells.
The CAR-T cells then were re-challenged with antigen-expressing target cells in the presence or absence of LY3039478. […] To assess cytolytic activity, the target cells were labeled with NucLight Red (NLR) to permit tracking by fluorescent microscopy. Killing activity was assessed by measuring the loss of viable target cells over time, as determined by loss of fluorescent signal over time by kinetic fluorescence microscopy (using the INCUCYTE® Live Cell Analysis System, Essen Bioscience). Target fluorescence was monitored over time and was normalized to target cell count.
A killing index was determined as the inverse of the area under the curve (AUC) for target fluorescence over time, and was normalized relative to DMSO vehicle control. […]

[5] = 24 hours after re-plating at day 4, both donors

C[C@H](NC(=O)CCC(F)(F)F)C(=O)N[C@@H]1C(=O)N(CCO)c2ncccc2-c2ccccc21 [LY3039478, 4,4,4-trifluoro-N-[(1S)-2-[[(7S)-5-(2-hydroxyethyl)-6-oxo-7H-pyrido[2,3-d][3]benzazepin-7-yl]amino]-1-methyl-2-oxo-ethyl]butanamide]
increase in BCMA antibody binding capacity (ABC) following GSI administration ([1]; three subjects, bone marrow aspirate): 66 fold | percentage of plasma cells with measurable surface BCMA expression following the three oral doses ([1]; 35% (mean) before GSI): 98.4% | CAR+ T cell count [2]: did not impact | viability [2]: did not impact | cytokine production (TNF-alpha, IFN-gamma and IL-2) ([2]; 24 hours): did not impact | levels of IFN-gamma [3, 5]: Increased levels | levels of IL-2 [3, 5]: Increased levels | levels of TNF-alpha [3, 5]: Increased levels | expansion of anti-BCMA CAR T cells ([3]; E:T 1:2, 10-14 days, healthy and myeloma donor): increased expansion | detrimental effects on CAR-T cell function ([3]; serial restimulation): did not exhibit any detrimental effects | function of chronically stimulated anti-BCMA CAR-expressing T cells to produce cytokines (TNF-alpha, IFN-gamma, IL-2) ([4]; 1 μM LY3039478, 24 hours, E:T 0.3:1 and 1:1): improved function | cytolytic activity of chronically stimulated anti-BCMA CAR+ T cells ([4]; 1 μM LY3039478 vs DMSO, E:T 0.3:1): improved cytolytic activity

Source: patent publication US12193994B2, “Combination of a cell therapy and a gamma secretase inhibitor” (Juno Therapeutics, Inc., priority 2017, dated 2025)
